Measurements taken from patent publication US6613762B2, “Gambogic acid, analogs and derivatives as activators of caspases and inducers of apoptosis” (Cytovia, Inc., priority 1999, dated 2003).
Read-outs that look alike come from different tables or passages of the source.

What was measured:
[1] = Inhibition of cell proliferation (GI50) and cell death (LC50), MRC-5; type: cell-based; conditions: human; MRC-5, 48 h; read-out: LC50 (dose for 50% cell death)
Description: T47D, ZR-75-1, PC-3, human prostate cancer cell line DU-145, human non-small cell lung cancer cell line A-549, human small cell lung cancer cell line SHP-77, HL-60 and MRC-5 cells were grown and harvested as in Example 90. […] The samples were mixed by agitation and incubated at 37° C. for 2-4 h in a 5% CO2-95% humidity incubator. […] This determines the possible background absorbance of the test compounds. No absorbance for gambogic acid or its analogs or derivatives was found at 490 nm. After the 2-4 h incubation, the samples were read for absorbance as above (ATest).
Baseline for GI50 (dose for 50% inhibition of cell proliferation) and LC50 (dose for 50% cell death) of initial cell numbers was determined by adding an aliquot of 90 μl of cells or 90 μl of media, respectively, to wells of a 96-well microtiter plate containing 10 μl of a 10% DMSO in RPMI-1640 media solution. […] The samples were mixed by agitation and incubated at 37° C. for 2-4 h in a 5% CO2-95% humidity incubator. Absorbance was read as above, (AT=0) defining absorbance for initial cell number used as baseline in GI50 determinations and (Amin) defining absorbance for media alone used as baseline in LC50 determinations.
GI50 (dose for 50% inhibition of cell proliferation)
LC50 (dose for 50% cell death)
50=100×[(ATest−Amin)/(AT=0−Amin)]

[2] = system: caspase cascade, human breast cancer cell line ZR-75-1; experiment: Caspase cascade activation assay (Example 90), ZR-75-1; type: cell-based; conditions: ratio of net RFU of test compound to control; 24 h incubation, 0.16 to 10 μM
Description: (§1) Human breast cancer cell lines T-47D and ZR-75-1, human prostate cancer cell line PC-3, human leukemia cancer cell line HL-60 and human non-transformed fibroblast cell line MRC-5 cells were grown according to media component mixtures designated by The American Type Culture Collection+10% FCS (Life Technologies, Inc.), in a 5% CO2-95% humidity incubator at 37° C. T-47D, ZR-75-1 and PC-3 cells were maintained at a cell density between 30 and 80% confluency and for HL-60 at a cell density of 0.1 to 0.6×10^6 cells/m. Cells were harvested at 600× g and resuspended at 0.65×10^6 cells/ml into appropriate media +10% FCS. […] The samples were mixed by agitation and incubated at room temperature.
(§2) The EC50 (nM) was determined by a sigmoidal dose-response calculation (Prism 2.0, GraphPad Software Inc.).

[3] = system: caspase cascade, human breast cancer cell line T-47D; experiment: Caspase cascade activation assay (Example 90), T-47D; type: cell-based; conditions: ratio of net RFU of test compound to control; 24 h incubation, 0.16 to 10 μM
Description: as §1, §2

[4] = system: caspase cascade, human prostate cancer cell line PC-3; experiment: Caspase cascade activation assay (Example 90), PC-3; type: cell-based; conditions: for PC-3 Ratio (caspase activity): ratio of net RFU of test compound to control, 24 h incubation, 0.16 to 10 μM
Description: as §1, §2

[5] = system: caspase cascade; experiment: Caspase cascade activation assay (Example 90), MRC-5; type: cell-based, human; conditions: human
Description: as §1, §2

[6] = system: caspase cascade, human non-transformed fibroblast cell line MRC-5; experiment: as above; type: cell-based; conditions: ratio of net RFU of test compound to control; 24 h incubation, 0.16 to 10 μM
Description: as §1, §2

[7] = system: caspase cascade, human leukemia cancer cell line HL-60; experiment: Caspase cascade activation assay (Example 90), HL-60; type: cell-based; conditions: ratio of net RFU of test compound to control; 24 h incubation, 0.16 to 10 μM
Description: as §1, §2

[8] = system: poly(ADP)ribose polymerase (PARP) cleavage, T47D cells; experiment: PARP cleavage western blot, T47D cells; type: cell-based, human; conditions: 1 μM staurosporine, 2 h and 4 h (FIG. 5C)
Description: (§3) Cleavage of the enzyme poly(ADP)ribose polymerase (PARP) by caspase-3 and related proteases is considered to be one of the molecular hallmarks of caspase-mediated apoptosis. Therefore, the ability of gambogic acid to induce PARP cleavage in four different human tumor cell lines (Jurkat cells, HL-60 cells, T47D cells and PC3 cells) was determined.
(§4) Cells were cultured in complete growth medium containing 10% FBS and treated with gambogic acid at concentrations of 2.5 μM or 5 μM for 2 to 4 h. Control cultures were treated with a drug vehicle (DMSO), or the well-characterized apoptosis inducer, staurosporine. At the end of the apoptosis induction period, the cells were harvested, washed once with PBS, quick-frozen on dry ice, and stored at −80° C. The cells were then lysed in a standard immunoblotting lysis buffer and samples of the lysates were electrophoresed on 4% to 20% gradient polyacrylamide gels. The proteins in the gels were then transferred to PVDF membranes and probed with a commercially-available rabbit polyclonal antibody to PARP.

[9] = system: poly(ADP)ribose polymerase (PARP) cleavage, PC3 cells; experiment: PARP cleavage western blot, PC3 cells; type: cell-based, human; conditions: 1 μM staurosporine, 2 h and 4 h (FIG. 5D)
Description: as §3, §4

EC50 at 24 h [5] [µM] | SMILES | CC50 at 48 h [1] [µM] | ZR-75-1 Ratio (caspase activity) [2] | T-47D Ratio (caspase activity) [3] | EC50 ([4]; Homo sapiens, 24 h, read-out: PC-3 EC50 (caspase activation potency)) [µM] | PC-3 Ratio (caspase activity) [4] | EC50 at 24 h ([5]; 24 h incubation, sigmoidal dose-response, read-out: MRC-5 EC50 (caspase activation potency)) [µM] | MRC-5 Ratio (caspase activity) [6] | HL-60 Ratio (caspase activity) [7] | PARP cleavage [8] | PARP cleavage [9]
 | COC(=O)/C(C)=C\CC12OC(C)(C)C3CC(C=C4C(=O)c5c(O)c6c(c(CC=C(C)C)c5OC431)OC(C)(CCC=C(C)C)C=C6)C2=O (stereo not drawn) [Example 4, Methyl Gambogate] | 0.5 | 14.9 | 16.8 | 1.33 | 3.9 | 0.501 | 27.8 | 7.7 |  | 
 | CN[C@@H]1C[C@H]2O[C@@](C)([C@@H]1OC)n1c3ccccc3c3c4c(c5c6ccccc6n2c5c31)C(=O)NC4 [staurosporine, reference compound] |  |  |  |  |  |  |  |  | no cleavage of PARP | no cleavage of PARP
1.2 | COc1c2c(c(CC=C(C)C)c3c1C(=O)C1=CC4CC5C(C)(C)OC(C/C=C(/C)C(=O)N6CCCCC6)(C4=O)C15O3)OC(C)(CCC=C(C)C)C=C2 (stereo not drawn) [Example 7, 6-Methoxy-gambogyl Piperidine] |  | 13.4 | 14.4 |  | 2.3 |  | 9.4 |  |  | 
